Measured values as given in ChEMBL document CHEMBL1777786, “Synthesis of cholestane saponins as mimics of OSW-1 and their cytotoxic activities” (Bioorg Med Chem Lett, 2011).

How the values were obtained:
Type in all cases: functional, cell-based
[1] = test system: A2780; assay: Cytotoxicity against human A2780 cells after 72 hrs by MTT assay; conditions: A2780, 72 h
[2] = test system: HCT-8; assay: Cytotoxicity against human HCT8 cells after 72 hrs by MTT assay; conditions: HCT-8, 72 h
[3] = test system: A549; assay: Cytotoxicity against human A549 cells after 72 hrs by MTT assay; conditions: A549, 72 h
[4] = test system: Bel-7402; assay: Cytotoxicity against human Bel7402 cells after 72 hrs by MTT assay; conditions: Bel-7402, 72 h
[5] = test system: BGC-823; assay: Cytotoxicity against human BGC823 cells after 72 hrs by MTT assay; conditions: BGC-823, 72 h

Structure (SMILES) | IC50 [1] [nM] | IC50 [2] [nM] | IC50 [3] [nM] | IC50 [4] [nM] | IC50 [5] [nM]
COc1ccc(C(=O)O[C@H]2[C@H](O[C@@H]3[C@@H](OC(C)=O)[C@H](O[C@H]4C[C@H]5[C@@H]6CC=C7C[C@@H](O)CC[C@]7(C)[C@H]6CC[C@]5(C)[C@H]4[C@H](C)CCC[C@@H](C)CO)OC[C@@H]3O)OC[C@@H](O)[C@@H]2O)cc1 | 6 | 70 | 9.3 | 23 | 2
COc1ccc(C(=O)O[C@H]2[C@H](O[C@@H]3[C@@H](OC(C)=O)[C@H](O[C@H]4C=C5C[C@@H](O)CC[C@]5(C)[C@H]5CC[C@]6(C)[C@@H]([C@H](C)CCC[C@@H](C)CO)CC[C@H]6[C@H]45)OC[C@@H]3O)OC[C@@H](O)[C@@H]2O)cc1 | > 10000 | > 10000 | > 10000 | > 10000 | > 10000
COc1ccc(C(=O)O[C@H]2[C@H](O[C@@H]3[C@@H](OC(C)=O)[C@H](O[C@H]4C=C5C[C@@H](O)CC[C@]5(C)[C@H]5CC[C@]6(C)[C@@H]([C@H](C)CCC[C@@H](C)CO)[C@@H](O)C[C@H]6[C@H]45)OC[C@@H]3O)OC[C@@H](O)[C@@H]2O)cc1 | 1900 | 75 | 87 | 50 | 78
COc1ccc(C(=O)O[C@H]2[C@H](O[C@H]3CO[C@@H](O[C@H]4C[C@H]5[C@@H]6CC=C7C[C@@H](O)CC[C@]7(C)[C@H]6CC[C@]5(C)[C@H]4[C@H](C)CCC[C@@H](C)CO)[C@H](OC(C)=O)[C@H]3O)OC[C@@H](O)[C@@H]2O)cc1 | > 10000 | > 10000 | > 10000 | > 10000 | > 10000
COc1ccc(C(=O)O[C@H]2[C@H](O[C@H]3CO[C@@H](O[C@H]4C=C5C[C@@H](O)CC[C@]5(C)[C@H]5CC[C@]6(C)[C@@H]([C@H](C)CCC[C@@H](C)CO)CC[C@H]6[C@H]45)[C@H](OC(C)=O)[C@H]3O)OC[C@@H](O)[C@@H]2O)cc1 | > 10000 | > 10000 | > 10000 | > 10000 | > 10000
COc1ccc(C(=O)O[C@H]2[C@H](O[C@H]3CO[C@@H](O[C@H]4C=C5C[C@@H](O)CC[C@]5(C)[C@H]5CC[C@]6(C)[C@@H]([C@H](C)CCC[C@@H](C)CO)[C@@H](O)C[C@H]6[C@H]45)[C@H](OC(C)=O)[C@H]3O)OC[C@@H](O)[C@@H]2O)cc1 | > 10000 | > 10000 | > 10000 | > 10000 | > 10000
CC(=O)O[C@H]1C(=O)[C@@]2(C)[C@H]([C@H](OC(=O)c3ccccc3)[C@]3(O)C[C@H](OC(=O)[C@H](O)[C@@H](NC(=O)c4ccccc4)c4ccccc4)C(C)=C1C3(C)C)[C@]1(OC(C)=O)CO[C@@H]1C[C@@H]2O [PACLITAXEL] | < 1 |  |  | 6 | < 1
